Key:
AChE (from electric eel) = target: T1, AChE (from electric eel) (Electrophorus electricus, UniProt O42275); assay: biochemical; settings: AChE from electric eel; mean ± SD of three experiments; read-out: AChE Inhibition (IC50)
T1 construct: AChE (from electric eel); purchased Sigma Chemical Company (St. Louis, MO, USA)
Procedure: (§1) The ChE inhibitory activity of the test compounds was determined using the modified Ellman’s method. The compounds were dissolved in DMSO (10 mmol/L) and then diluted with PB (phosphate buffer) solution to attain a range of final concentrations. […] Briefly, 100 μL of different concentrations of the test or standard compounds and 100 μL of AChE/BuChE (0.5 U/mL) were added into 48-well plates and then co-incubated at 37 °C for 30 min. […] All concentrations mentioned are final.

[1] = target: T2, BuChE (from equine serum) (Equus caballus, UniProt P81908); assay: biochemical; settings: mean ± SD of three experiments, read-out: BuChE Inhibition (IC50)
T2 construct: BuChE (from equine serum); purchased Sigma Chemical Company (St. Louis, MO, USA); host or cells: equine serum
Procedure: as §1

H2O2-induced PC12 cells = assay: Neuroprotection against H2O2-induced PC12 cell injury (MTT); format: cell-based; settings: H2O2 250 μM, mean ± SEM
Procedure: Neuroprotection assay is similar to cytotoxicity. Oxidative cellular damage caused by H2O2 has become one of the important methods to study oxidative damage in neural cells. PC12 cells were seeded into a 96-well plate at a density of 5.0 × 10^3 cells per well. After the cells were incubated overnight, the old medium was discarded. […] After incubating overnight, 20 μL of MTT solution (5 mg/mL, Sigma-Aldrich) was added per well, and the cells were incubated for an additional 4 h. Afterwards, the supernatant was removed and 150 μL of DMSO was added. The 96-well plate was placed on the shaker for 10–15 min, and then the absorbance at 492 nm was measured by a microplate reader.

PC12 cells = assay: Cytotoxicity in PC12 cells (MTT); format: cell-based
Procedure: The cytotoxicity and neuroprotective effects of the compounds on PC12 cells were evaluated by MTT assay. PC12 cells were seeded into a 96-well plate at a density of 5.0 × 10^3 cells per well. After the cells were incubated overnight, the old medium was discarded. The cells were incubated for another 24 h with fresh medium containing compounds at a concentration of 30 or 50 μM. A total of 20 μL of MTT solution (5 mg/mL, Sigma-Aldrich, Shanghai, China) was then added per well, and the cells were incubated for an additional 4 h. Afterwards, the supernatant was removed and 150 μL of DMSO was added to solubilize formazan crystals. The 96-well plate was placed on the shaker for 10–15 min, and then the absorbance at 492 nm was measured by a microplate reader.

T1 sequence (O42275 24-633): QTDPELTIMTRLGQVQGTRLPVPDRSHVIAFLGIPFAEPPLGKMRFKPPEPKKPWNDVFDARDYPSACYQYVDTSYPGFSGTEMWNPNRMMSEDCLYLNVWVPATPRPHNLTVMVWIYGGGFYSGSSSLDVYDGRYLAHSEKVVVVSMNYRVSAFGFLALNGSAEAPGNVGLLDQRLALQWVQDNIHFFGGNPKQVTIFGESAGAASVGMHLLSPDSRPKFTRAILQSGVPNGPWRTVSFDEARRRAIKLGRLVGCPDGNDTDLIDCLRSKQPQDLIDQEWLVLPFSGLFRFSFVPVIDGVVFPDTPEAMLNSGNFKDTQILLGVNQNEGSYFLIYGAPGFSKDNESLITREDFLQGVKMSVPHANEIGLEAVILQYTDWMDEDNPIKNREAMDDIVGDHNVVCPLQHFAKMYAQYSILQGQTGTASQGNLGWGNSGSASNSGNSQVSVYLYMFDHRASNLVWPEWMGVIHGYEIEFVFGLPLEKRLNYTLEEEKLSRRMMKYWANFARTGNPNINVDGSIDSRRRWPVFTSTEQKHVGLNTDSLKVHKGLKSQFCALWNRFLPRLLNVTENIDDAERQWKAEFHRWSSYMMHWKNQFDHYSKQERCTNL
T2 sequence (P81908 whole entry): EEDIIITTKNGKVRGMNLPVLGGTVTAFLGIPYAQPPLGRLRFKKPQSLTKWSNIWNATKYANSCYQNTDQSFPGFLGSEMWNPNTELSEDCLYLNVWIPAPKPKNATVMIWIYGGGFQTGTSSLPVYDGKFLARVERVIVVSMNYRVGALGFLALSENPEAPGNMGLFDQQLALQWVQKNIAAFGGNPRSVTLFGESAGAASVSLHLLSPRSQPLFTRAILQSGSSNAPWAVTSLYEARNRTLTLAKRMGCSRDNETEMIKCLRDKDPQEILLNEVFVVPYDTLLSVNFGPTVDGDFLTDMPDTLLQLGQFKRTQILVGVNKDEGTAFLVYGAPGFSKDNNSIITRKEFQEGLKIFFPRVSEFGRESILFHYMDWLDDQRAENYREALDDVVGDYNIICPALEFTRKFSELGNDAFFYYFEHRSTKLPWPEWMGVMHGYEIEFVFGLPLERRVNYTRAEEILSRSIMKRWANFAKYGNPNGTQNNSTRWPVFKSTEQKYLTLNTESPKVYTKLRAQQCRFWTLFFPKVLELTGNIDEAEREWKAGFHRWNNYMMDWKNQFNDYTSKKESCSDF

| Compound | IC50 (AChE (from electric eel)) [µM] | IC50 [1] [µM] | H2O2-Induced PC12 Cell Viability (% of Control) (H2O2-induced PC12 cells; compound 10 μM) | H2O2-Induced PC12 Cell Viability (% of Control) (H2O2-induced PC12 cells; compound 30 μM) | Cell Viability (% of Control) (PC12 cells; compound 30 μM) | Cell Viability (% of Control) (PC12 cells; compound 50 μM) |
| --- | --- | --- | --- | --- | --- | --- |
| O=C1c2cc(NS(=O)(=O)c3ccc(Br)cc3)ccc2-n2c1nc1ccccc1c2=O [4e] | 33 ± 1.91 | > 50 | 42.8 ± 1.5 % of Control | 57.51 ± 0.8 % of Control | 99.6 ± 2.1 % of Control | 99.5 ± 2.3 % of Control |
| COc1ccc(S(=O)(=O)Nc2ccc3nc4n(c(=O)c3c2)-c2ccccc2C4=O)cc1OC [8k] | > 50 | > 50 | 44.37 ± 0.5 % of Control | 52.28 ± 2.3 % of Control | 99.6 ± 1.2 % of Control | 99.5 ± 2.7 % of Control |
| CC(C)(C)c1ccc(S(=O)(=O)Nc2ccc3nc4n(c(=O)c3c2)-c2ccccc2C4=O)cc1 [8c] | 15.8 ± 2.6 | > 50 | 39.10 ± 4.5 % of Control | 49.64 ± 4.1 % of Control | 98.4 ± 1.9 % of Control | 96.7 ± 1.9 % of Control |
| O=C1c2ccccc2-n2c1nc1ccc(NS(=O)(=O)c3ccc(F)cc3)cc1c2=O [8f] | 43 ± 1.12 | > 50 | 34.24 ± 3.5 % of Control | 42.25 ± 1.7 % of Control | 99.4 ± 1.7 % of Control | 98.3 ± 3.0 % of Control |
| CC(=O)Nc1ccc(S(=O)(=O)Nc2ccc3c(c2)C(=O)c2nc4ccccc4c(=O)n2-3)cc1 [4i] | 8.8 ± 1.23 | > 50 | 34.43 ± 5.5 % of Control | 40.93 ± 2.9 % of Control | 99.6 ± 1.7 % of Control | 98.3 ± 3.0 % of Control |
| COc1ccc(S(=O)(=O)Nc2ccc3c(c2)C(=O)c2nc4ccccc4c(=O)n2-3)c(OC)c1 [4l] | 18.6 ± 1.77 | > 50 | 36.35 ± 1.6 % of Control | 39.84 ± 2.8 % of Control | 100.2 ± 3.1 % of Control | 99.8 ± 2.7 % of Control |
| O=C1c2ccccc2-n2c1nc1ccc(NS(=O)(=O)c3ccccc3)cc1c2=O [8a] | 14 ± 1.67 | > 50 | 39.65 ± 3.1 % of Control | 50.98 ± 1.8 % of Control | 100.1 ± 1.5 % of Control | 99.8 ± 1.7 % of Control |
| O=C1c2cc(NS(=O)(=O)c3ccccc3OC(F)(F)F)ccc2-n2c1nc1ccccc1c2=O [4n] | 5.92 ± 0.56 | 4.93 ± 0.35 | 46.53 ± 1.2 % of Control | 52.84 ± 1.8 % of Control | 99.9 ± 0.7 % of Control | 99.7 ± 1.8 % of Control |
| O=C1c2ccccc2-n2c1nc1ccc(NS(=O)(=O)c3c(Cl)cccc3Cl)cc1c2=O [8p] | > 50 | > 50 | 42.32 ± 0.7 % of Control | 50.5 ± 0.5 % of Control | 99.6 ± 2.7 % of Control | 98.2 ± 1.7 % of Control |
| CC(C)c1cc(C(C)C)c(S(=O)(=O)Nc2ccc3c(c2)C(=O)c2nc4ccccc4c(=O)n2-3)c(C(C)C)c1 [4d] | > 50 | > 50 | 42.53 ± 2.7 % of Control | 50.1 ± 0.8 % of Control | 99.4 ± 2.4 % of Control | 97.3 ± 3.6 % of Control |
| O=c1c(O)c(-c2ccc(O)c(O)c2)oc2cc(O)cc(O)c12 [Quercetin, reference compound] | – | – | 55.21 ± 1.6 % of Control | 63.27 ± 2.1 % of Control | 99.6 ± 1.1 % of Control | 99.5 ± 1.3 % of Control |
